Test results reported in US20260273076A1, “PHARMACEUTICAL COMPOSITIONS AND METHOD OF TREATMENT OF METASTATIC AND OTHER CANCERS” (Favorite Pharmaceuticals, priority 2023, published 2026).
Where two headings read alike, the source gives them in different places.

Tests used:
[1] = system: PDX derived cell line models (pancreatic cancer patients) in co-culture with human dermal fibroblasts; assay: Cypre 3D Oncology in vitro patient-derived xenograft (PDX) Panel (Example 11); format: cell-based; conditions: treated four days, 5 patients
Procedure: In this example, a Cypre PDX assay was carried out in 5 different pancreatic cancer patients using 5 test compounds. […] The endpoint from this assay was tumor size and DRAQ7 staining.
PDX Tumor cells were expanded in 2D cell culture and then grown in 3D hydrogels, co-embedded with human dermal fibroblasts (HDF). […] After, 3D assays were stained with Hoechst and DRAQ7, fixed, and analyzed using a high content imager and proprietary image analysis software.

HCT-116 spheroids = assay: HCT-116 spheroid viability / mitochondrial staining, high-content imaging (Example 1); format: cell-based; conditions: 72 hours
Procedure: Monolaurin was also similarly compared as a non-pegylated Lauric acid control.
HCT-116 cells were cultured according to ATCC guidelines and spheroids containing the cells were incubated in plate maps. […] After 72 hours of incubation, the images were taken at 10× with a 25-step z-stack in […] on a Molecular Devices imager.
On the day of dosing, C12 (C12=C12-Ether-PEG-1000), C-18 (C18=C18-amide-PEG-1000) and monolaurin were reconstituted in DMSO to make stock solutions of 60 mM. Lauric Acid and Polyethylene Glycol were also reconstituted in DMSO to make stock solutions of 120 mM. C-12, C-18 and monolaurin stock solutions were then serially diluted at half-log steps in DMSO and then diluted 100× in maintenance media. Lauric Acid and monomethoxy polyethylene glycol MW 1000 (PEG) were serially diluted in DMSO and then diluted 200× in maintenance media. Dosing done according to manufacturer's protocol.
DMSO concentrations were kept consistent across all wells at 0.5%. Following dosing, Plate 1 & 2 were incubated in a 37° C., 5% CO2 incubator for 72 hours. Plate 1 was removed from incubation between 60 and 180 min timepoints for imaging. Well A05 in Plate 1 was imaged in bright field at 10× while incubated in the imager at 37° C. Images were taken at 5-minute intervals for 120 mins. Following imaging, Plate 1 was immediately placed back into 37° C., 5% C02 incubator. […]

[2] = system: human pancreatic cancer (BXPC3) cells
Procedure: In this example, human pancreatic cancer (BXPC3) cells were grown on microscope slides for 24 hours prior to administration of test articles. […] Imaging was at 10× with photographs taken once every five minutes.
The timeline proceeds from left to right.

HCT-116 cells = conditions: HCT-116 2-D, 72 hours
Procedure: Cells were incubated for 72 hours in a 37° C./5% CO2 incubator. […] At the conclusion of the 72-hour timepoint, cells were labeled with 6 μL/mL MitoTracker Deep Red and 1:250 Viability Dye.
Following labeling, cells were fixed in 10% neutral buffer formalin and permeabilized with 0.2% Triton X-100 in 1×PBS. Cells were then labeled with 1:500 Hoechst 33342 Ready Flow™ Reagent And 5 μL/mL Alexa Fluor 488 phalloidin.
Cells were then imaged at 20× widefield using a Molecular Devices ImageXpress Micro Confocal High-Content imaging platform. The scan laser/dichromic settings were tuned for 405, 488, 647, and 730 nm excitation wavelengths. Images were acquired and saved as 16-bit 2048×2048 TIF files for further processing. A grid of the sites at well centers was acquired during image capture.
The images were then analyzed using nuclear, phalloidin, and MitoTracker Channels. The number of cells was determined for each. Viable and non-viable cells were determined using colocalization of the nuclear channel and the viability dye images after thresholding. Phalloidin and MitoTracker cell object intensity distributions were quantified using cellular objects positive for phalloidin and MitoTracker. Statistical analysis was performed using GraphPad Prism statistical software. Nonlinear regression was used as a curve fitting tool to determine compound efficacy.

[3] = system: human pancreatic cancer (BX PC3) cells; conditions: 200 micromolar, 24 hours
BXPC3 cells = system: BXPC3 cells
Excerpt: Molecular crowding occurs when high concentrations of macromolecules reduce the volume of solvent available for other molecules in the solution, effecting the properties of cellular water. […] An increase in dry mass on addition of drug to the cells reflects uptake of the conjugate into the intracellular space. […] The method has been used to evaluate a dose response relationship and the characteristic response patterns of specific cell types to selected polyethylene glycol fatty acid conjugated structures.

[4] = system: A549, HL-60, Raji B, Panc-1, and PC3 cancer cell lines; conditions: 4-5 h period, 5 cell lines

CCCCCCCCCCCCCCCCCCNc1c(NCCOCCOCCOCCOCCOCCOCCOCCOCCOCCOCCOCCOCCOCCOCCOCCOCCOCCOCCOCCOCCOCCOC)c(=O)c1=O [C18-Squaramide-PEG-1000, 3-((2,5,8,11,14,17,20,23,26,29,32,35,38,41,44,47,50,53,56,59,62,65-docosaoxa-heptahexacontan-67-yl)amino)-4-(octadecylamino)cyclobut-3-ene-1,2-dione]
Tumor Total area: activity in comparison [1]: similarity in activity

CCCCCCCCCCCC(=O)O [Lauric Acid]
effect on cell viability, treatment vs control (HCT-116 spheroids): no difference between treatment and control

polyethylene glycol octadecyl ether [C18-Ether-PEG-5000]
cell destruction vs no drug control ([2]; 300 μM, 24 hours of incubation): completely destroyed
effect on existing cell mass / clusters ([2]; 300 μM, after 19 hours): dissociation of the accumulated mass and loss of cellular motility and death
kill kinetic ([2]; BXPC3, 300 μM (Example 3)): 19 h
DRAQ7 cell death assay: activity in comparison with standard of care [1]: equal to standard of care
Tumor Total area: activity in comparison [1]: equal to standard of care
MitoTracker intensities (HCT-116 cells): no effects
concentration at which total cell death / death of all the cells occurred (HCT-116 cells): 100 µM

polyethylene glycol octadecyl ether [C18-Ether-PEG-1000]
number of cells in clusters vs no drug control [3]: significantly reduced
effect on cells ([2]; 100 μM and 200 μM, 24 hours of incubation): drastic with both concentrations
cell kill at lower vs higher concentration ([2]; 100 μM vs 200 μM, 24 hours): less cell kill at the lower concentration
effect on a cluster of cells ([2]; 200 μM, 1-hour period): membrane disruption and cell death
time to cell fragmentation after dosing ([2]; 200 uM, single cell): ≤ 60 min
MitoTracker intensities (HCT-116 cells): modest effect
concentration at which total cell death / death of all the cells occurred (HCT-116 cells): 50 µM
effects on cell viability (HCT-116 cells): strong effects on cell viability
time post dosing to membrane disruption leading to cell death (BXPC3 cells): ≤ 40 min
drop of cell mass (BXPC3 cells; first study (FIG. 17A)): 3 fold
time post dosing of phase drop in dry mass (BXPC3 cells; first study (FIG. 17A)): 30 to 50 min
cell mass decrease, factor (BXPC3 cells; repeat study (FIG. 17D)): 2
time of major phase drop after the addition of the drug (BXPC3 cells; repeat study (FIG. 17D)): about 25 minutes
cell death ([4]; 50 μM): 80%
cell death ([4]; 100 μM): 100%
